In one assay the test system is C57Bl/6J mice. Put plainly: Oral glucose tolerance test in mice (with sitagliptin). To be noted: glucose 2 g/kg, FIG. 1. The assay is classed as in vivo. How it is done:
C57Bl/6J mice were fasted for 6 hours prior to drug administration. Blood glucose was measured after the 6 hour fast (T30 min), and animals were sorted into groups evenly matched for fasting glucose levels. At T30, drug suspension was administered to the mice by oral gavage. Glucose was administered at TO min at 2 g/kg. The administration volume was 5 mL/kg of body weight. Blood was sampled at TO, prior to glucose administration, then at 15, 30, 60, 90 and 120 min after glucose administration for measurement of glucose by glucometer. 10 mice were used for each dose group. The formulation of 5-Ethyl-2-{4-[4-(4-tetrazol-1-yl-phenoxymethyl)-thiazol-2-yl]-piperidin-1-yl}-pyrimidine and sitagliptin was 1% carboxymethylcellulose, 2% Tween 80 prepared in a manner essentially as described in Example 2. The formulation was a suspension and was continuously stirred during dosing of the animals.
Glucose levels were plotted against time and the incremental area under the curve (AUC) of the glucose excursion was determined from T0 to T120 using GraphPad Prism 5.1. Statistical significance of differences in AUC between compound treatment and vehicle was determined by non-parametric Kruskal-Wallis test with Dunn's post test. […] Statistical differences in the glucose levels at each time point during OGTT were determined by two way ANOVA with Bonferroni's post test. […]

Another assay relates to mice. Description: Incretin secretion of mice, dose response on top of sitagliptin. It counts as in vivo. To be noted: increasing dosages (1, 3, 10, 30 and 300 mg/kg) given in addition to sitapliptin at 100 mg/kg, 10 minutes after glucose, FIG. 5a. The procedure: 5-Ethyl-2-{4-[4-(4-tetrazol-1-yl-phenoxymethyl)-thiazol-2-yl]-piperidin-1-yl}-pyrimidine, sitagliptin, and vildagliptin were prepared as in Examples 1 and 2.
Mice were fasted for 6 h prior to drug administration. Blood glucose was measured after the 6 h fast (T30 min), and animals were sorted into 6 groups evenly matched for fasting glucose levels and body weight. At T30 min, drug suspension as prepared in Example 1 herein, was administered to the mice by oral gavage. All groups were given sitagliptin at 100 mg/kg, and Compound 1 was given at 1, 3, 10, 30 and 300 mg/kg. 100 mg/kg sitagliptin was chosen since this dose is greater than that required to achieve 80% DPP-IV inhibition in mice over the time period evaluated in this study. (Kim et al, 2005). Glucose (2 g/kg) was administered by oral gavage at T0. Animals were anesthetized and blood drawn by terminal cardiac puncture 10 minutes after glucose administration. To address the effects on incretin production, total GIP levels were measured. […] The DPP-IV inhibitor sitagliptin was co-administered to prevent breakdown of active GLP-1 by DPP-IV (Kim et al; 2005). Statistical significance of differences in GLP-1, GIP and glucose levels between compound+sitagliptin treatment and sitagliptin alone was determined by one way ANOVA with Dunnet's post test. Differences with a p value less than 0.05 were considered significant. […]

In the case of `CCc1cnc(N2CCC(c3nc(COc4ccc(-n5cnnn5)cc4)cs3)CC2)nc1` [5-Ethyl-2-{4-[4-(4-tetrazol-1-yl-phenoxymethyl)-thiazol-2-yl]-piperidin-1-yl}-pyrimidine], the “incremental AUC of the glucose excursion T0 to T120” value with C57Bl/6J mice (compound only at 30 mg/kg oral gavage) is “approximately 3200 mg.min/dl”. In addition, the “secretion of active GLP-1” value in the assay on mice is on record as “stimulated secretion of active GLP-1”.

`N[C@@H](CC(=O)N1CCn2c(nnc2C(F)(F)F)C1)Cc1cc(F)c(F)cc1F` [sitagliption, sitagliptin, reference compound]: in the assay on C57Bl/6J mice (sitagliptin alone at 10 mg/kg oral gavage), the “incremental AUC of the glucose excursion T0 to T120” value is listed as “approximately 2800 mg.min/dl”.

For the origin of these results see patent US20090270404A1, “OXYMETHYLENE ARYL COMPOUNDS AND USES THEREOF” (Metabolex, Inc., priority 2008, published 2009).
